This is an account of results in patent EP4389746A2, “P2X3 RECEPTOR ANTAGONISTS” (Recordati Industria Chimica E Farmaceutica SPA, priority 2022, dated 2024).

For one data set, the system named is C57BL/6J mice. As to the kind of experiment: Scratching model: inhibition of ATP induced pruritus in mouse. Conditions: dose inhibiting the 35% of number of bouts, intraperitoneally 30 min before α,β-meATP 200 µg/50 µL intradermal, bouts counted for 30 minutes. The format is in vivo. The method, then:
(§1) C57BL/6J mice, Hartley Guinea pigs and Sprague-Dawley Rats from Charles River Italy were used in the experiments. Animals were housed with free access to food and water and maintained on a forced 12 hr light-dark cycle at 22-24°C for at least one week before the experiments were carried out. The animals were handled according to internationally accepted principles for care of laboratory animals (Directive 2010/63/EU of the European Parliament and of the Council of 22 September 2010).
"Scratchng model" - Inhibition of ATP induced pruritus in mouse
Mice were shaved at the rostral back the day before injection. The day of the experiment, an intradermal injection of the irritant agent α,β-meATP 200 µg/50 µL (Sigma, Italy) into the skin was performed. The hind limb scratching behavior directed toward the injection site, was recorded. One bout was defined as the lifting of the hindlimb toward the injection site and then placing the limb back on the floor. The number of bouts were counted for a period of 30 minutes. The Example 22 compound investigated was injected intraperitoneally 30 min before the administration of the irritant agent. (Fig. 2)
In the scratching model the results are presented as mean ± SEM of the values. Statistical analysis was performed using one-way ANOVA and Dunnet's test for multiple comparisons. The ED35 of the tested compounds was determined by linear regression analysis of bouts (Graphpad v5).

For another data set, the target named is T1, human P2X2/3 receptor (Homo sapiens, UniProt P56373+Q9UBL9).
T1 construct: expressed in transfected cells; host or cells: CHO-K1
T1 sequence (P56373 1-397): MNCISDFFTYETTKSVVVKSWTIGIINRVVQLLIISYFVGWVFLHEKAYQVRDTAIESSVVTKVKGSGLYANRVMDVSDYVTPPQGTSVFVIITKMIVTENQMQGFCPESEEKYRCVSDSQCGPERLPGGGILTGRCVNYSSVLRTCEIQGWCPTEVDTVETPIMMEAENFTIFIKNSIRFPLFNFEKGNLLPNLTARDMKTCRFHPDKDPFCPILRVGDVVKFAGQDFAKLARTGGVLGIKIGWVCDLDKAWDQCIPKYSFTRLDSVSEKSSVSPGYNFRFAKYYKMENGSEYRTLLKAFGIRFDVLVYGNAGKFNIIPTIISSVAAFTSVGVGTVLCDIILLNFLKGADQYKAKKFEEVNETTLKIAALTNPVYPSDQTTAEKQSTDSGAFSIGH
T1 sequence (Q9UBL9 1-471): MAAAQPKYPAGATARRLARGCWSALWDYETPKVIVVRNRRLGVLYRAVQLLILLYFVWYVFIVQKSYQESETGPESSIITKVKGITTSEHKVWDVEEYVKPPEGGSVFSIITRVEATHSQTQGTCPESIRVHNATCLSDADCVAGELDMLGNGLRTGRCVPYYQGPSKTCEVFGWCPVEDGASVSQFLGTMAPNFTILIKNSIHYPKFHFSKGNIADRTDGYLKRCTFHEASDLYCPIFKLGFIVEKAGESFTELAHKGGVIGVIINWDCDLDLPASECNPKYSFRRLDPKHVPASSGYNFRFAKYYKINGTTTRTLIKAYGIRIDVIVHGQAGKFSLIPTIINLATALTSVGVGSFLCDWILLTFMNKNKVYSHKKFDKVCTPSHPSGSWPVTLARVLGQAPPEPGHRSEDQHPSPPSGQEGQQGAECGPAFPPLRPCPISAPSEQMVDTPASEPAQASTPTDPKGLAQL
As to the kind of experiment: Calcium fluorescence measurement: human P2X2/3 receptor activity inhibition (CHO-K1 cells, Fluo-8 NoWash, […]). It is filed as cell-based. The conditions noted are these: for IC50: CHO-K1 cells expressing human P2RX2/X3 channel, 10µM α,β-Met-ATP, read-out: h-P2X2/3 IC50; for Selectivity: ratio of IC50 of P2X2/3/ P2X3 receptors. The method, then: Determination of human P2X2/3 receptor activity inhibition
The assay for the human P2RX2/X3 has been evaluated by the screening instrumentation using the […] as reader and the FLUO8-NoWash dye as fluorescent readout for calcium detection.
CHO-K1 cells recombinantly expressing the human P2RX2/X3 channel are maintained in DMEM F-12 (1:1) mixture (LONZA cat. n°: BE04-687F/U1) supplemented with 5 mL of 100 mM Sodium Pyruvate (LONZA cat. n° BE13-115E), 25 mL of 7.5% Sodium Bicarbonate (LONZA cat. n° BE17-613E), 6.5 mL of 1M Hepes (LONZA cat. n° BE17-737E), 5 mL of 100X Penicillin/Streptomycin mixture (LONZA cat. n° DE17-602E) and 50 mL of Fetal Bovine Serum (Sigma cat. n° F7524), 5 µg/mL Puromycin dihydrochloride (Sigma cat. n° P9620) and 1 mg/ml G418 disulfate salt (Sigma cat. n° G8168).
Cells were seeded into black-walled clear bottom 384 Multiwell plates at a density of 10.000 cells/well in complete medium. After 24 h the culture medium was replaced with 20 µL/well of Fluo-8 NoWash calcium sensitive dye (AAT Bioquest cat. n° 36316) diluted in Tyrode's buffer (Standard Tyrode's buffer: in house solution, 130 mM NaCl, 5 mM KCl, 2 mM CaCl2, 5 mM NaHCO3, 1 mM MgCl2, 20 mM HEPES, pH 7.4).
The plates were incubated for 1 hours at 37°C and injected with 10 µL/well of test compounds at 3X concentration in Tyrode's buffer with the […]. After 5 minutes a second injection of 15 µL/well of 10µM α,β-Met-ATP in Tyrode's buffer (α,β-Met-ATP: from Tocris cat. n° 3209) was performed and the signal of the emitted fluorescence was recorded by […] (Molecular Devices).
The selectivity is expressed as the ratio of IC50 of P2X2/3/ P2X3 receptors. Table 8: Human P2X3 and h-P2X2/3 receptor antagonist activity for selected compounds of the invention.

For a further data set, the target named is T2, human P2X3 receptor (Homo sapiens, UniProt P56373).
T2 construct: expressed in transfected cells; host or cells: CHO-K1
T2 sequence (P56373 1-397): T1 sequence (P56373 1-397)
Briefly: Calcium luminescence measurement: human P2X3 receptor activity inhibition (CHO-K1 cells, photoprotein readout, FLEXSTATION). The conditions noted are these: CHO-K1 cells co-expressing human P2X3 and Ca2+ sensitive photoprotein; agonist α,β-Met-ATP; read-out: h-P2X3 IC50. The format is cell-based.

In another data set the test system is Sprague-Dawley Rats. As to the kind of experiment: Two bottle taste test in rats: dysgeusia effect of P2X3 antagonists. It is filed as in vivo. Conditions: rats water fasted overnight; bottles presented 30 minutes after treatment for 15 minutes (Fig. 4). As to the method:
as §1
(Fig 3) "Two bottle taste test" in rats - Dysgeusia effect of P2X3 antagonists
Rats were water fasted overnight. The day of the experiment the animals were treated with tested compounds and 30 minutes later two bottles were presented for 15 minutes, the first one containing water and the second bottle containing Quinine, a substance showing a bitter taste. The volume of liquid drunk in 15 minutes from each bottle was recorded and expressed as percentage of preference (Fig.4). Statistical analysis was performed on absolute values (mean ± SEM) using one-way ANOVA and Tukey's test for multiple comparisons.

In the case of `CC(C)C1C(=O)N=C2c3nnc(N4CCOCC4)cc3N(Cc3ccc(Cl)cc3)C(=O)N21` (stereo not shown) [Example 28, 5-[(4-Chlorophenyl)methyl]-3-(morpholin-4-yl)-8-(propan-2-yl)imidazo[1',2':1,6]pyrimido[5,4-c]pyridazine-6,9(5H,8H)-dione], in the data set with C57BL/6J mice, the “ED35” value is reported as 22.54 mg/kg. Besides, on human P2X2/3 receptor, the IC50 was above 30000 nM and the Selectivity is above 1800. Moreover, at human P2X3 receptor, the IC50 was found to be 16.6 nM.
Regarding `CC(=O)N1CCN(c2cnc3c(c2)n(Cc2ccc(Cl)cc2)c(=O)n2c(C(C)(C)C)nnc32)CC1` [Example 34, 8-(4-Acetylpiperazin-1-yl)-3-tert-butyl-6-[(4-chlorophenyl)methyl]pyrido[2,3-e][1,2,4]triazolo[4,3-c]pyrimidin-5(6H)-one], in the data set with C57BL/6J mice, the “ED35” value worked out at 12.42 mg/kg. Besides, on human P2X2/3 receptor, the IC50 is above 30000 nM and the Selectivity is given as above 697. Moreover, at human P2X3 receptor, the IC50 was determined as 43 nM.
In the same order, the values of `CC(C)(C)c1nnc2c3nnc(N4CCOCC4)cc3n(Cc3ccc(Cl)cc3)c(=O)n12` [Example 44, 3-tert-Butyl-6-[(4-chlorophenyl)methyl]-8-(morpholin-4-yl)[1,2,4]triazolo[4',3': 1,6]pyrimido[5,4-c]pyridazin-5(6H)-one] are 9.06 mg/kg, 3900 nM, 582 and 6.73 nM.
Regarding `COc1cc(C(C)C)c(Oc2cnc(N)nc2N)cc1S(N)(=O)=O` [Gefapixant, reference compound], the “preference between water and Quinine” value in the data set with Sprague-Dawley Rats is “showed altered taste function and poor preference between water and Quinine bottles”.
